What all share (experiment): DTP human tumour cell line panel, 48 h
Experiment [1] concerns CAKI-1.
Experiment [2] relates to SNB-19.
Experiment [3] deals with SN12C.
The subject of experiment [4] is K562.
Experiment [5] has as its system NCI-H23.
The subject of experiment [6] is EKVX.
The test system of experiment [7] is SR.
Experiment [8] has as its system Hs-578T.
The test system of experiment [9] is OVCAR-5.
The subject of experiment [10] is MDA-MB-435.
Experiment [11] concerns MCF7.
The subject of experiment [12] is DU-145.
In experiment [13] the test system is HCT-116.
The test system of experiment [14] is M14.
The test system of experiment [15] is UACC-257.
In experiment [16] the test system is U-251.
Experiment [17] has as its system CCRF-CEM.
Experiment [18] relates to 786-0.
In experiment [19] the test system is HOP-62.
Experiment [20] has as its system HL-60.

The structures appear in SMILES notation.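 Five concentrations, 48 hours, 96-well plates. The concentration for 50% growth inhibition is given as GI50.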 The source made the active and inactive calls. Rule as the data show it: active = GI50 up to about 1.1 µM and inactive = higher.

Eleven compounds from ChEMBL document CHEMBL1201862, “PubChem BioAssay data set” (2004) can be followed below.

For the compound `Cc1c[n+]([O-])c2ccccc2[n+]1[O-]`, the GI50 in experiment [1], in [2], in experiment [3], in experiment [4], in [5] and in [6] was > 100 µM (inactive) each time. Moreover, the GI50 in experiment [7], in experiment [8], in experiment [9], in [10], in experiment [11] and in experiment [12] was > 100 µM (inactive) each time. Moreover, the GI50 in experiment [13], in experiment [14], in experiment [15], in experiment [16], in [17] and in experiment [18] was > 100 µM (inactive) each time. Further, in experiment [19], the GI50 was > 100 µM (inactive).
As for `Cc1nc(-c2ccccc2)c(-c2ccccc2)s1`, the GI50 is 10 µM (inactive) in experiment [20]; 20.2 µM (inactive) in experiment [1]; 31 µM (inactive) in experiment [2]; 37.9 µM (inactive) in experiment [3]; 18.8 µM (inactive) in experiment [4]; 28.1 µM (inactive) in [5]. Also, the GI50 in experiment [6] is 22.6 µM (inactive); in experiment [8], 21.8 µM (inactive); in experiment [9], 27.6 µM (inactive); in [10], 17.9 µM (inactive); in experiment [11] it was 25.3 µM (inactive); in [12], 32 µM (inactive). Moreover, the GI50 in experiment [13] is 25.6 µM (inactive); in experiment [14], 19.9 µM (inactive); in [15], 25.1 µM (inactive); in experiment [16] it was 15.2 µM (inactive); in experiment [17] it was 16.5 µM (inactive); in experiment [18] it was 21.4 µM (inactive). Moreover, the GI50 in experiment [19] was 38 µM (inactive).
In the case of `ClC(Cl)(Cl)C(N1CCN(c2ccccc2)CC1)N1CCN(c2ccccc2)CC1`, the GI50 in [1] is > 100 µM (inactive); in [2], > 100 µM (inactive); in experiment [3], > 100 µM (inactive); in [4], > 100 µM (inactive); in experiment [6] it was > 100 µM (inactive); in experiment [7], 45 µM (inactive). Besides, the GI50 in [8], in experiment [9], in [10], in experiment [11], in experiment [12] and in experiment [13] was > 100 µM (inactive) throughout. For the same compound, the GI50 in experiment [14], in experiment [15], in experiment [16], in [18] and in experiment [19] was > 100 µM (inactive) each time.
For the compound `C/C1=C\[C@H](C)C[C@H](C)OC(=O)C[C@H](c2ccc(O)cc2)NC(=O)[C@H](Cc2ccc(O)c(Br)c2)N(C)C(=O)[C@H](C)NC(=O)[C@@H](C)C1`, the GI50 in experiment [2], in [3], in experiment [4], in experiment [5], in experiment [6] and in [7] was > 25 µM (inactive) throughout. In addition, the GI50 in experiment [8], in [9], in [10], in experiment [11], in [12] and in [13] was > 25 µM (inactive) in each case. The GI50 in experiment [14], in [16], in experiment [17], in experiment [18] and in experiment [19] was > 25 µM (inactive) each time.
For `Cc1cccc(NC2=NCCO2)c1Cl`, the GI50 in [20], in experiment [2], in experiment [3], in experiment [4], in experiment [5] and in experiment [6] was > 100 µM (inactive) each time. In addition, the GI50 in [7], in experiment [8], in experiment [9], in experiment [10], in experiment [11] and in experiment [12] was > 100 µM (inactive) throughout. In addition, the GI50 in [13], in [14], in experiment [15], in [16], in experiment [17] and in experiment [18] was > 100 µM (inactive) throughout. Also, in experiment [19], the GI50 was > 100 µM (inactive).
On to `Cc1ccc2c(=O)c(-c3nnsn3)c[nH]c2n1`, for which the GI50 in [20], in experiment [1], in experiment [2], in experiment [3], in experiment [4] and in experiment [5] was > 100 µM (inactive) throughout. Also, the GI50 in [6], in experiment [8], in experiment [9], in [10], in experiment [11] and in experiment [12] was > 100 µM (inactive) throughout. Moreover, the GI50 in [13], in [14], in [15], in experiment [16], in experiment [17] and in experiment [18] was > 100 µM (inactive) each time. In addition, the GI50 in [19] is > 100 µM (inactive).
Take `c1cc(CCN2CCCCC2)ccn1`: the GI50 in [1], in experiment [2], in experiment [3], in experiment [4], in [5] and in experiment [6] was > 100 µM (inactive) in each case. Further, the GI50 in experiment [7] was 33.3 µM (inactive); in [8], > 100 µM (inactive); in [9], > 100 µM (inactive); in experiment [10], > 100 µM (inactive); in experiment [11] it was > 100 µM (inactive); in [12], > 100 µM (inactive). Also, the GI50 in experiment [13], in experiment [14], in [15], in experiment [16], in experiment [18] and in [19] was > 100 µM (inactive) in each case.
In the case of `COc1ccc(/C=C2\CN(C)Cc3c2nc(O)c(C#N)c3-c2ccc(OC)cc2)cc1`, the GI50 in [20] was 13.3 µM (inactive); in [1] it was > 100 µM (inactive); in experiment [2] it was 34.5 µM (inactive); in experiment [3], 42.5 µM (inactive); in experiment [4], 57.5 µM (inactive); in [5], > 100 µM (inactive). Also, the GI50 in experiment [6] was > 100 µM (inactive); in experiment [8], 35.1 µM (inactive); in experiment [9], > 100 µM (inactive); in [10], > 100 µM (inactive); in [11] it was 16.5 µM (inactive); in experiment [12], 97.5 µM (inactive). Further, the GI50 in [13] was 60.7 µM (inactive); in [14], 39.7 µM (inactive); in experiment [15], > 100 µM (inactive); in experiment [16] it was 80.2 µM (inactive); in experiment [17], 40.5 µM (inactive); in experiment [18] it was 18.2 µM (inactive). Moreover, the GI50 in [19] is 51.2 µM (inactive).
Regarding `OC(c1cc(-c2ccc(Cl)cc2)nc2ccccc12)C1CCCCN1` (centres undefined), the GI50 was 2.39 µM (inactive) in [20]; 2.32 µM (inactive) in experiment [1]; 3.3 µM (inactive) in [2]; 1.75 µM (inactive) in experiment [3]; 1.48 µM (inactive) in experiment [4]; 2.15 µM (inactive) in experiment [5]. Moreover, the GI50 was 2.14 µM (inactive) in [6]; 1.99 µM (inactive) in experiment [8]; 2.16 µM (inactive) in [9]; 2.09 µM (inactive) in experiment [10]; 1.82 µM (inactive) in experiment [11]; 1.74 µM (inactive) in experiment [12]. Besides, the GI50 is 1.92 µM (inactive) in experiment [13]; 1.77 µM (inactive) in experiment [14]; 2.66 µM (inactive) in experiment [15]; 1.84 µM (inactive) in experiment [16]; 0.498 µM (active) in experiment [17]; 1.93 µM (inactive) in experiment [18]. The GI50 in experiment [19] is 1.61 µM (inactive).
In the case of `O=[N+]([O-])C(=C(Nc1ccccc1)Nc1ccccc1)/C(Cl)=C(\Cl)[N+](=O)[O-]`, the GI50 in experiment [1] was 1.61 µM (inactive); in experiment [2], 12.9 µM (inactive); in [3], 2.48 µM (inactive); in experiment [4] it was 3.41 µM (inactive); in experiment [5], 3.04 µM (inactive); in experiment [6], 5.62 µM (inactive). In addition, the concentration for 50% growth inhibition (GI50) is 1.11 µM (active) in [7]; 2.74 µM (inactive) in [8]; 8.13 µM (inactive) in experiment [9]; 3.26 µM (inactive) in [10]; 4.14 µM (inactive) in experiment [11]; 2.65 µM (inactive) in [12]. In addition, the GI50 is 2.73 µM (inactive) in [13]; 4.75 µM (inactive) in experiment [14]; 5.97 µM (inactive) in experiment [15]; 4.92 µM (inactive) in experiment [16]; 2.86 µM (inactive) in experiment [17]; 3.15 µM (inactive) in experiment [18]. For the same compound, the GI50 in [19] was 10.3 µM (inactive).
As to `CCN(CC)CCSc1c(C(C)=O)c(=O)n(-c2ccccc2)c(=S)n1-c1ccccc1`, the GI50 was 2.52 µM (inactive) in experiment [20]; 10.2 µM (inactive) in [1]; 21.1 µM (inactive) in [2]; 14.4 µM (inactive) in experiment [3]; 3.09 µM (inactive) in [4]; 14.7 µM (inactive) in [5]. The GI50 was 15.1 µM (inactive) in [6]; 23.4 µM (inactive) in experiment [8]; 21 µM (inactive) in experiment [9]; 6.17 µM (inactive) in experiment [10]; 3.18 µM (inactive) in experiment [11]; 3.08 µM (inactive) in experiment [12]. Further, the GI50 in [13] is 2.28 µM (inactive); in experiment [14], 2.05 µM (inactive); in experiment [15] it was 9.98 µM (inactive); in experiment [16] it was 17.7 µM (inactive); in experiment [17] it was 0.571 µM (active); in [18], 1.8 µM (inactive). For the same compound, in experiment [19], the GI50 is 18.9 µM (inactive).
